Legend:
Assay in all cases: Kinase selectivity profile assay
Type in all cases: biochemical
PKG1b = molecular target: T1, PKG1b (Homo sapiens, UniProt Q13976); conditions: 500 nM; relative to DMSO; read-out: Residual enzymatic activity
T1 construct: purchased Reaction Biology Corporation
In short: (§1)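 Radiometric kinase assay run by a standard protocol. Unbound phosphate was removed by washing filters in phosphoric acid, and product radioactivity gave percent remaining kinase activity versus DMSO vehicle reactions. Run in duplicate.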

MST2/STK3 = molecular target: T2, MST2/STK3 (Homo sapiens, UniProt Q13188); conditions: 500 nM; relative to DMSO; read-out: Residual enzymatic activity
T2 construct: purchased Reaction Biology Corporation
In short: as §1

IKKb/IKBKB = molecular target: T3, IKKb/IKBKB (Homo sapiens, UniProt O14920); conditions: 500 nM; relative to DMSO; read-out: Residual enzymatic activity
T3 construct: purchased Reaction Biology Corporation
In short: as §1

PKA = molecular target: T4, PKA (Homo sapiens, UniProt P17612); conditions: 500 nM, relative to DMSO; for remaining activity at 0.5 µM: read-out: Residual enzymatic activity
T4 construct: purchased Reaction Biology Corporation
In short: as §1

MAPKAPK3 = molecular target: T5, MAPKAPK3 (Homo sapiens, UniProt Q16644); conditions: 500 nM; relative to DMSO; read-out: Residual enzymatic activity
T5 construct: purchased Reaction Biology Corporation
In short: as §1

PKCtheta = molecular target: T6, PKCtheta (Homo sapiens, UniProt Q04759); conditions: 500 nM; relative to DMSO; read-out: Residual enzymatic activity
T6 construct: purchased Reaction Biology Corporation
In short: as §1

PRKX = molecular target: T7, PRKX (Homo sapiens, UniProt P51817); conditions: 500 nM; relative to DMSO; read-out: Residual enzymatic activity
T7 construct: purchased Reaction Biology Corporation
In short: as §1

CDK9/cyclin T1 = molecular target: T8, CDK9/cyclin T1 (Homo sapiens, UniProt P50750); conditions: 500 nM; relative to DMSO; read-out: Residual enzymatic activity
T8 construct: purchased Reaction Biology Corporation
In short: as §1

RON/MST1R = molecular target: T9, RON/MST1R (Homo sapiens, UniProt Q04912); conditions: 500 nM; relative to DMSO; read-out: Residual enzymatic activity
T9 construct: purchased Reaction Biology Corporation
In short: as §1

ABL1 = molecular target: T10, ABL1 (Homo sapiens, UniProt P00519); conditions: 500 nM, relative to DMSO; for remaining activity at 0.5 µM: read-out: Residual enzymatic activity
T10 construct: purchased Reaction Biology Corporation
T10 sequence (P00519 whole entry): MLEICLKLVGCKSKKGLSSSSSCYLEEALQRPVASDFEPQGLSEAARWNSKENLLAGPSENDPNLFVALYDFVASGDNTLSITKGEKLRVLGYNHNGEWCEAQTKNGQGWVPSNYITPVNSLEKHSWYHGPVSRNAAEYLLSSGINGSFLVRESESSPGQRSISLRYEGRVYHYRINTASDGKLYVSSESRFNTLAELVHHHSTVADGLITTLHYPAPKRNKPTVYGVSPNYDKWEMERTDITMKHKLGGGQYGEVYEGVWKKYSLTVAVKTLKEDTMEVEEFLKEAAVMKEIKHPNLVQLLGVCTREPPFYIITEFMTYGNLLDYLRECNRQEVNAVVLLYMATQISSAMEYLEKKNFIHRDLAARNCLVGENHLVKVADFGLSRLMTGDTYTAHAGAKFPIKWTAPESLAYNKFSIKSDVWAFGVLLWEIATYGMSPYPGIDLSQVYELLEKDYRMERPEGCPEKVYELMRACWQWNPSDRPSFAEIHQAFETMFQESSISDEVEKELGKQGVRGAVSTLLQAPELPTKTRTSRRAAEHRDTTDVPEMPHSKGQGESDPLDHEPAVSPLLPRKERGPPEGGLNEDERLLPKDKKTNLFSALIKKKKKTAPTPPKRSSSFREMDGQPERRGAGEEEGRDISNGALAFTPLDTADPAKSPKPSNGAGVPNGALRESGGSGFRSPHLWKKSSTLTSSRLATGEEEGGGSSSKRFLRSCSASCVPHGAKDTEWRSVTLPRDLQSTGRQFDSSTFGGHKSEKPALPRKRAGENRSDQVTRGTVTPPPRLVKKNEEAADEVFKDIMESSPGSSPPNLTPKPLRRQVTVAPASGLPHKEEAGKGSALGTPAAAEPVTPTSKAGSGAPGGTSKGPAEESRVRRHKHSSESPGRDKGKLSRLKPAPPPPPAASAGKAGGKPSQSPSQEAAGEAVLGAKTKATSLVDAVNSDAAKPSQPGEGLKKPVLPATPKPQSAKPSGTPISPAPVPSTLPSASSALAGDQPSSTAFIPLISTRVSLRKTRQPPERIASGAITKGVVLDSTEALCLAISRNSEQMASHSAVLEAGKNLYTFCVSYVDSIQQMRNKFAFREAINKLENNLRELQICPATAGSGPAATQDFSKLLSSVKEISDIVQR
In short: as §1

LRRK2 = molecular target: T11, LRRK2 (Homo sapiens, UniProt Q5S007); conditions: for remaining activity at 0.5 µM: 500 nM, relative to DMSO, read-out: Residual enzymatic activity
T11 construct: purchased Reaction Biology Corporation (assay service)
T11 sequence (Q5S007 whole entry): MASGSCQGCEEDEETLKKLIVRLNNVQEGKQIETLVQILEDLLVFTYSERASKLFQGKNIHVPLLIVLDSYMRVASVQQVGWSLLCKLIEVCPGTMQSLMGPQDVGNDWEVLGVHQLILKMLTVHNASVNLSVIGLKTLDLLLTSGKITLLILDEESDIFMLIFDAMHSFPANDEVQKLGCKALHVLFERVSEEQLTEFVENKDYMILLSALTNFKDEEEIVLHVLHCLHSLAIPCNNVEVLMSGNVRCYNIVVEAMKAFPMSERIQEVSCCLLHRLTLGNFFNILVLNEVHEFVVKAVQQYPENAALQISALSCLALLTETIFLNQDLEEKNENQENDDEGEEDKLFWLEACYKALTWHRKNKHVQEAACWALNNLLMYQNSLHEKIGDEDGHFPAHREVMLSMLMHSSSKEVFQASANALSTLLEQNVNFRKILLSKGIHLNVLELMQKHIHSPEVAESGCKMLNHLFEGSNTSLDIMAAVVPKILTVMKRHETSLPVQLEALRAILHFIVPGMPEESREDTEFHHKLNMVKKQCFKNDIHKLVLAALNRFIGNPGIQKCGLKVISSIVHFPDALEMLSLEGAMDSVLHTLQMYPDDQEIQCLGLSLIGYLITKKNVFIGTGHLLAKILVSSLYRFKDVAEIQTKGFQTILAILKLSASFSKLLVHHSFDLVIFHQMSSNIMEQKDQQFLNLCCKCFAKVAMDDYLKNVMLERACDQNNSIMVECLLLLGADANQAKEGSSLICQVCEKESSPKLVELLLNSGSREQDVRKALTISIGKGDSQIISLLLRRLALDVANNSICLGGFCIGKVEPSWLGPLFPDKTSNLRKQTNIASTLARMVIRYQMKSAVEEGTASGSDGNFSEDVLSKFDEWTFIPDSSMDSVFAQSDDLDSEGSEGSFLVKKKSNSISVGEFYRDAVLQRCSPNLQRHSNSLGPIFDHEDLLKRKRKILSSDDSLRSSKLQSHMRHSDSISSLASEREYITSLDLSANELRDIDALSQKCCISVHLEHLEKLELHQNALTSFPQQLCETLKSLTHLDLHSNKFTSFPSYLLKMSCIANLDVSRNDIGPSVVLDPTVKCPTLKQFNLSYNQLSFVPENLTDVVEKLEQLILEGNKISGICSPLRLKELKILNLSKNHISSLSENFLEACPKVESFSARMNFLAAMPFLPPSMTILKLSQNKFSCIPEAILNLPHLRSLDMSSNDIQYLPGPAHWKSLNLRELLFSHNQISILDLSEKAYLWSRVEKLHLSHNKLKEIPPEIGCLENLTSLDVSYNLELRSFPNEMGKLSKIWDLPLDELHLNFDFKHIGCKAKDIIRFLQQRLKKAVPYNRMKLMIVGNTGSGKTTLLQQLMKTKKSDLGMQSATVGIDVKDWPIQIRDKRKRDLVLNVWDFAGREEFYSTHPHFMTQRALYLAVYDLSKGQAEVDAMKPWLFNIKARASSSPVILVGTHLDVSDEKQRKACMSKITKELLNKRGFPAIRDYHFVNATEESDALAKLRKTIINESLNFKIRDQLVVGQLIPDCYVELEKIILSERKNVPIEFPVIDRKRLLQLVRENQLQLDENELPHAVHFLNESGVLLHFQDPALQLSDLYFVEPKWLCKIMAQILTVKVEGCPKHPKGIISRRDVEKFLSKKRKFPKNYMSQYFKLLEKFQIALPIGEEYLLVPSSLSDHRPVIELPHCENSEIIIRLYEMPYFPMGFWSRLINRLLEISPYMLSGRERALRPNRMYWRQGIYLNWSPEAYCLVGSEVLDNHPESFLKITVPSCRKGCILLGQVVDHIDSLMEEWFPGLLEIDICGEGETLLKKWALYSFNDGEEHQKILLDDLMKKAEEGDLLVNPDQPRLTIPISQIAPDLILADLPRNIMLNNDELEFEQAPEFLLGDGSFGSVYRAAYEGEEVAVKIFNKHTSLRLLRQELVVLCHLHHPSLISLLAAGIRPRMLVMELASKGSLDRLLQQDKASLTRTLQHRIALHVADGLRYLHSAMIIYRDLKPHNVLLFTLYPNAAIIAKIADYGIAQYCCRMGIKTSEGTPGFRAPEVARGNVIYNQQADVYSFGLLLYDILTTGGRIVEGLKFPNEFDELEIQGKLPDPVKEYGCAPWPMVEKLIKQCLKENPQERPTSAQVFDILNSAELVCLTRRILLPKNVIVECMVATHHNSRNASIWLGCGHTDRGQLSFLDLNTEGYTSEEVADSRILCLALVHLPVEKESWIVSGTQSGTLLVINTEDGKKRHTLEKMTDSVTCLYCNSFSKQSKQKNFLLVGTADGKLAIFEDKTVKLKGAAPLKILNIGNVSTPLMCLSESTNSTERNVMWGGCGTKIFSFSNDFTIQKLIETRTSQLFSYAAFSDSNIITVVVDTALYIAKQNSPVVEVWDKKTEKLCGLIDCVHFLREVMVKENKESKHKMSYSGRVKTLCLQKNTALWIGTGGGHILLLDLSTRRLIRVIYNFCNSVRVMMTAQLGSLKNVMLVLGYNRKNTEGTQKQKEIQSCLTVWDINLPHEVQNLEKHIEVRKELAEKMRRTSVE
In short: as §1

PIM1 = molecular target: T12, PIM1 (Homo sapiens, UniProt P11309); conditions: 500 nM; relative to DMSO; read-out: Residual enzymatic activity
T12 construct: purchased Reaction Biology Corporation
In short: as §1

ALK6/BMPR1B = molecular target: T13, ALK6/BMPR1B (Homo sapiens, UniProt O00238); conditions: 500 nM; relative to DMSO; read-out: Residual enzymatic activity
T13 construct: purchased Reaction Biology Corporation
In short: as §1

PKN1/PRK1 = molecular target: T14, PKN1/PRK1 (Homo sapiens, UniProt Q16512); conditions: 500 nM; relative to DMSO; read-out: Residual enzymatic activity
T14 construct: purchased Reaction Biology Corporation
T14 sequence (Q16512 whole entry): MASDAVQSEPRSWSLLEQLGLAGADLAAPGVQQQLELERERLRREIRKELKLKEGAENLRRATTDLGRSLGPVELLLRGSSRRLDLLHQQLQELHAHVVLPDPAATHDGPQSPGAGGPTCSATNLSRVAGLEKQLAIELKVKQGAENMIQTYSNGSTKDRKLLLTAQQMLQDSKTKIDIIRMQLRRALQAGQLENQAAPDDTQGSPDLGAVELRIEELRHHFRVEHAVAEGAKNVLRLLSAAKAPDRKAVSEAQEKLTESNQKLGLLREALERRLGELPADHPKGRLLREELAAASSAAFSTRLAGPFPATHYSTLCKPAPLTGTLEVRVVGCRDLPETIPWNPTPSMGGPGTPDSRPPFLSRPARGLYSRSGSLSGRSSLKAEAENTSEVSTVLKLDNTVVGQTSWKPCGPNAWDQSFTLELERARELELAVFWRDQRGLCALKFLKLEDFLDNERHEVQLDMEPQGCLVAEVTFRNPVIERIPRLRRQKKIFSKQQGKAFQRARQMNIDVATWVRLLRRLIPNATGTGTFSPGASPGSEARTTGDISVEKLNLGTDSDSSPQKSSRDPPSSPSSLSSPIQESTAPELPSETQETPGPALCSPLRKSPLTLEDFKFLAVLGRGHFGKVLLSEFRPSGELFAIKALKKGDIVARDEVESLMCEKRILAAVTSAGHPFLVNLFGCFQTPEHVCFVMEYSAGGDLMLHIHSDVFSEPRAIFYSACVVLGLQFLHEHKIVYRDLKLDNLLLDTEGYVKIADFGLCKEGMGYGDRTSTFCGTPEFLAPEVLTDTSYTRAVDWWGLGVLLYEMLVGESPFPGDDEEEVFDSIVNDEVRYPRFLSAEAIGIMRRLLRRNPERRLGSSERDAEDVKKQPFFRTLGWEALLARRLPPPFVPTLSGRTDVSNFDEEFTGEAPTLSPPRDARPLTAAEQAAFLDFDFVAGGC
In short: as §1

MSK1/RPS6KA5 = molecular target: T15, MSK1/RPS6KA5 (Homo sapiens, UniProt O75582); conditions: 500 nM; relative to DMSO; read-out: Residual enzymatic activity
T15 construct: purchased Reaction Biology Corporation
In short: as §1

MNK2 = molecular target: T16, MNK2 (Homo sapiens, UniProt Q9HBH9); conditions: 500 nM; relative to DMSO; read-out: Residual enzymatic activity
T16 construct: purchased Reaction Biology Corporation
In short: as §1

CLK2 = molecular target: T17, CLK2 (Homo sapiens, UniProt P49760); conditions: 500 nM; relative to DMSO; read-out: Residual enzymatic activity
T17 construct: purchased Reaction Biology Corporation
In short: as §1

CK2a2 = molecular target: T18, CK2a2 (Homo sapiens, UniProt P19784); conditions: 500 nM; relative to DMSO; read-out: Residual enzymatic activity
T18 construct: purchased Reaction Biology Corporation
In short: as §1

FLT3 = molecular target: T19, FLT3 (Homo sapiens, UniProt P36888); conditions: for remaining activity at 0.5 µM: 500 nM, relative to DMSO, read-out: Residual enzymatic activity
T19 construct: purchased Reaction Biology Corporation (assay service)
T19 sequence (P36888 27-993): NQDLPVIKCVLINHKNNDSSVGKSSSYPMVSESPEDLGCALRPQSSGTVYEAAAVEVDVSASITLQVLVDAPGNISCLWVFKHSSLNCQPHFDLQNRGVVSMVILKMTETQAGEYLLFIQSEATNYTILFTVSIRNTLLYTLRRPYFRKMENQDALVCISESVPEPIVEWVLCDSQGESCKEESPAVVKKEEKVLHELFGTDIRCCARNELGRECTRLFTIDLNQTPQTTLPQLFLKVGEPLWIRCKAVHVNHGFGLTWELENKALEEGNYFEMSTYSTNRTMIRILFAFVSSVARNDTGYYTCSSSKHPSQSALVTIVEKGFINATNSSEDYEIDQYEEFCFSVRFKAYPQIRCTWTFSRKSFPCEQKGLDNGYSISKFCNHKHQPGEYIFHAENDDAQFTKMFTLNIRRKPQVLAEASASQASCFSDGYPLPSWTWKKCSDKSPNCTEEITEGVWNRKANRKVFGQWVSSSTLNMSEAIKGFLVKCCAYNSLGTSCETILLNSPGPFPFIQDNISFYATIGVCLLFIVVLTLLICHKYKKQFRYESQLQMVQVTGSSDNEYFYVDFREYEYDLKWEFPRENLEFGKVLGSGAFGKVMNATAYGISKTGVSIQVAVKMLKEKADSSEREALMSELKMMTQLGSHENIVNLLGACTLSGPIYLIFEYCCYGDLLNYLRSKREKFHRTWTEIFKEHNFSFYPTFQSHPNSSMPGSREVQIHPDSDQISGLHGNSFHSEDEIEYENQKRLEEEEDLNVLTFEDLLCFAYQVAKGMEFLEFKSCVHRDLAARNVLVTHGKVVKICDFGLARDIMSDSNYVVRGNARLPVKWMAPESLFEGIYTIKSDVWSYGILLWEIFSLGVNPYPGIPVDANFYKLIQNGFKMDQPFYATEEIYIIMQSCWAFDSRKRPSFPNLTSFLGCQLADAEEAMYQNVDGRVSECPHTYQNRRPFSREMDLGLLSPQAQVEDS
In short: as §1

MYLK3 = molecular target: T20, MYLK3 (Homo sapiens, UniProt Q32MK0); conditions: 500 nM; relative to DMSO; read-out: Residual enzymatic activity
T20 construct: purchased Reaction Biology Corporation
In short: as §1

JAK3 = molecular target: T21, JAK3 (Homo sapiens, UniProt P52333); conditions: 500 nM; relative to DMSO; read-out: Residual enzymatic activity
T21 construct: purchased Reaction Biology Corporation
In short: as §1

GLK/MAP4K3 = molecular target: T22, GLK/MAP4K3 (Homo sapiens, UniProt Q8IVH8); conditions: 500 nM; relative to DMSO; read-out: Residual enzymatic activity
T22 construct: purchased Reaction Biology Corporation
In short: as §1

SGK2 = molecular target: T23, SGK2 (Homo sapiens, UniProt Q9HBY8); conditions: 500 nM; relative to DMSO; read-out: Residual enzymatic activity
T23 construct: purchased Reaction Biology Corporation
In short: as §1

YES/YES1 = molecular target: T24, YES/YES1 (Homo sapiens, UniProt P07947); conditions: for remaining activity at 0.5 µM: 500 nM, relative to DMSO, read-out: Residual enzymatic activity
T24 construct: purchased Reaction Biology Corporation (Malvern, PA, USA)
T24 sequence (P07947 whole entry): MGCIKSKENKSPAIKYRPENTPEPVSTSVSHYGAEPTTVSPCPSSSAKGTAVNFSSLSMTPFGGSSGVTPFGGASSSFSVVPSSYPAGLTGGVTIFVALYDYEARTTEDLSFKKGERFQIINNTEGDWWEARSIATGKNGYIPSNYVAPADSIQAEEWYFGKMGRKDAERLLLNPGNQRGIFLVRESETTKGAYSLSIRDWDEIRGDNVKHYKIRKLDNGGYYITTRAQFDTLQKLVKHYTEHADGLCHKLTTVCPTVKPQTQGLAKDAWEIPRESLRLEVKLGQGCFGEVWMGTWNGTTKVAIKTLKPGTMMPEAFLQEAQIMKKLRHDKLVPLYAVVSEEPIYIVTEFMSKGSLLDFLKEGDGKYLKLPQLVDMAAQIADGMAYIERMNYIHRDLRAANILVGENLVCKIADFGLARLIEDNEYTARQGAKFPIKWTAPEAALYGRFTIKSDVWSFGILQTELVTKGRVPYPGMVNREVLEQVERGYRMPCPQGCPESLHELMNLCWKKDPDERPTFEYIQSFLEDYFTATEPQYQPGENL
In short: as §1

LKB1 = molecular target: T25, LKB1 (Homo sapiens, UniProt Q15831); conditions: 500 nM; relative to DMSO; read-out: Residual enzymatic activity
T25 construct: purchased Reaction Biology Corporation
In short: as §1

STK16 = molecular target: T26, STK16 (Homo sapiens, UniProt O75716); conditions: 500 nM; relative to DMSO; read-out: Residual enzymatic activity
T26 construct: purchased Reaction Biology Corporation
In short: as §1

PKCd = molecular target: T27, PKCd (Homo sapiens, UniProt Q05655); conditions: 500 nM; relative to DMSO; read-out: Residual enzymatic activity
T27 construct: purchased Reaction Biology Corporation
In short: as §1

[1] = 10-dose mode, threefold serial dilution from 10 μM

| SMILES | remaining activity at 0.5 µM (PKG1b) [%] | remaining activity at 0.5 µM (MST2/STK3) [%] | remaining activity at 0.5 µM (IKKb/IKBKB) [%] | remaining activity at 0.5 µM (PKA) [%] | remaining activity at 0.5 µM (MAPKAPK3) [%] | remaining activity at 0.5 µM (PKCtheta) [%] | remaining activity at 0.5 µM (PRKX) [%] | remaining activity at 0.5 µM (CDK9/cyclin T1) [%] | remaining activity at 0.5 µM (RON/MST1R) [%] | remaining activity at 0.5 µM (ABL1) [%] | remaining activity at 0.5 µM (LRRK2) [%] | remaining activity at 0.5 µM (PIM1) [%] | remaining activity at 0.5 µM (ALK6/BMPR1B) [%] | remaining activity at 0.5 µM (PKN1/PRK1) [%] | remaining activity at 0.5 µM (MSK1/RPS6KA5) [%] | remaining activity at 0.5 µM (MNK2) [%] | remaining activity at 0.5 µM (CLK2) [%] | remaining activity at 0.5 µM (CK2a2) [%] | remaining activity at 0.5 µM (FLT3) [%] | remaining activity at 0.5 µM (MYLK3) [%] | also measured |
| --- | --- | --- | --- | --- | --- | --- | --- | --- | --- | --- | --- | --- | --- | --- | --- | --- | --- | --- | --- | --- | --- |
| COc1cc(Nc2ncnc(Nc3cc4c(cn3)NC(=O)C(C)(C)O4)n2)cc(OC)c1OC [MT-SYK-03] | 93.9 | 105 | 94 | 96.4 | 102 | 102 | 115 | 118 | 98.4 | > 54 | 48 | 101 | 143 | 104 | 106 | 78.6 | 94.5 | 66 | 5.7 | 95.9 | Residual enzymatic activity (PKA): did not inhibit any; Residual enzymatic activity (ABL1): 68.0%; IC50 (LRRK2; [1]): 206 nM; IC50 (FLT3; [1]): 23 nM; remaining activity at 0.5 µM (JAK3): 74.7%; remaining activity at 0.5 µM (GLK/MAP4K3): 94.1%; remaining activity at 0.5 µM (SGK2): 110%; remaining activity at 0.5 µM (YES/YES1): 11.6%; IC50 (YES/YES1; [1]): 3.5 nM; inhibition at 0.5 µM (YES/YES1; read-out: Inhibition at 500 nM): > 90%; remaining activity at 0.5 µM (LKB1): 101%; remaining activity at 0.5 µM (STK16): 50.6%; remaining activity at 0.5 µM (PKCd): 110% |
| COc1cc(Nc2ncc(F)c(Nc3ccc4c(n3)NC(=O)C(C)(C)O4)n2)cc(OC)c1OC [R406, reference compound] | 98.6 | 97.9 | 53 | 50.8 | 102 | 99.5 | 104 | 99.5 | 47.9 | 68.6 | 5.5 | 99.2 | 145 | 62.6 | 97.3 | 37.9 | 81.6 | 21.4 | 6.2 | 96.4 | remaining activity at 0.5 µM (JAK3): 10.4%; remaining activity at 0.5 µM (GLK/MAP4K3): 65.8%; remaining activity at 0.5 µM (SGK2): 106%; remaining activity at 0.5 µM (YES/YES1): 10.1%; remaining activity at 0.5 µM (LKB1): 69.3%; remaining activity at 0.5 µM (STK16): 6.3%; remaining activity at 0.5 µM (PKCd): 97.7% |

Source: PMC8632988, “Inhibition of SYK and cSrc kinases can protect bone and cartilage in preclinical models of osteoarthritis and rheumatoid arthritis” (Scientific Reports, 2021)
